ChEMBL document CHEMBL1123356, “Plant antitumor agents. 22. Isolation of 11-hydroxycamptothecin from Camptotheca acuminata Decne: total synthesis and biological activity” (1986)

What was measured:
Type in all cases: functional, Mus musculus
L1210 [1] = experiment: Compound was tested for active dose in L1210 Leukemia assay; 2-8 mg/kg
L1210 [2] = experiment: Compound was tested for maximum percentage T/C in L1210 Leukemia assay at 8 mg/kg (no cures out of 6)
L1210 [3] = experiment: Compound was tested for toxic dose in L1210 Leukemia assay
L1210 [4] = experiment: Compound was tested for active dose in L1210 Leukemia assay; 7.5-60 mg/kg
L1210 [5] = experiment: Compound was tested for maximum percentage T/C in L1210 Leukemia assay at 60 mg/kg (3 cures out of 6)
L1210 [6] = experiment: Compound was tested for active dose in L1210 Leukemia assay; 10-40 mg/kg
L1210 [7] = experiment: Compound was tested for maximum percentage T/C in L1210 Leukemia assay at 40 mg/kg (no cures out of 6)

Which results are given for `CC[C@@]1(O)C(=O)OCc2c1cc1n(c2=O)Cc2cc3ccccc3nc2-1` [CAMPTOTHECIN]?
Active dose (L1210 [1]): 2 mg/kg; T/C (L1210 [2]): 164%; Toxic dose (L1210 [3]): 16 mg/kg

What does the source list for `CC[C@@]1(O)C(=O)OCc2c1cc1n(c2=O)Cc2cc3ccc(O)cc3nc2-1` (racemic)?
Active dose (L1210 [4]): 7.5 mg/kg; T/C (L1210 [5]): 357%

`CC[C@@](O)(C(=O)[O-])c1cc2n(c(=O)c1CO)Cc1cc3ccccc3nc1-2.[Na+]` was tested. Which Active dose (L1210 [6]) did it give?
The Active dose was 10 mg/kg.

What about the T/C (L1210 [7]) of the same compound?
The T/C was 178%.

What about the Toxic dose (L1210 [3]) of the same compound?
The Toxic dose was 80 mg/kg.
